# Where a SMILES comes first, the peptide text is derived from it. [ ]: non-standard residue; d: D form. The star is where a group is joined. 2Nal = N[C@@H](Cc1ccc2ccccc2c1)C(=O)O; Octanoyl = CCCCCCCC(=O)*; Dab = NCC[C@H](N)C(=O)O; AEEA = NCCOCCOCC(=O)O
# Key:
# E. coli ATCC 25922 = assay type: cell-based, Escherichia coli; settings: MHB-II, inoculum 5 × 10^5 CFU/mL, 37 °C, 18–24 h, visual read-out, triplicate
# Experimental: (§1) In the original report on S3(B), MIC experiments were carried out by using non-cation-adjusted MHB-I media. To this, bovine serum albumin (BSA) and acetic acid were added. The rationale for choosing a medium without cations is that cation-adjusted media (MHB-II) in some cases causes substantial inhibition of the activity of cationic peptides. Furthermore, some peptides are at risk of precipitation when diluted into MHB medium, which can be avoided via the addition of BSA and acetic acid. However, the use of MHB-II is favorable to imitate the in vivo conditions as much as possible. Both media were tested with and without the addition of BSA and acetic acid by trial and error. The use of pure MHB-II was compatible with S3(B) and its fatty acid analogues, and therefore was chosen for the MIC determinations. Noticeably, MHB-I with BSA and acetic acid led to precipitation of lipopeptides in the present work.
# Cation-adjusted Mueller-Hinton broth (MHB-II) media (BD BBLTM Beef extract powder, BD BactoTMCasamino acids, and DIFCO soluble starch was from Becton, Dickinson and Company©, Franklin Lakes, NJ, USA). MHB media supplemented with 0.2% BSA was from Sigma Aldrich (St. Louis, MO, USA) and 0.01% acetic acid from VWR®. The 96 well plate cell-culture cluster, round-bottom, polypropylene plates, and V-shaped 96 well polypropylene plates were purchased from Corning® Inc., Costar®, Corning, NY, USA. Microseal® film was obtained from Bio-Rad Laboratories, Inc., Hercules, CA, USA. A VersaMaxTM Tunable Microplate Reader (Molecular Devices LLC, Sunnyvale, CA, USA) was used and the data were evaluated on a Softmax® Pro (Molecular Devices LLC).
# The MIC experiments were performed according to a protocol adapted from Wiegand et al., with minor modifications. The MICs were determined in triplicate. The peptides were dissolved in Milli-Q water to produce 10 mg/mL stock solutions in small glass containers. The bacterial isolates to be tested were streaked onto agar plates to obtain single colonies, and the plates were incubated at 37 °C for 18–24 h. The strains tested were S. aureus ATCC 29213, P. aeruginosa ATCC 27853, E. coli ATCC 25922, A. baumannii ATCC 19606, and K. pneumonia ATCC 13883. Test compounds were prepared in 2-fold dilutions in 50 μL volumes in polypropylene microtiter plates. Bacterial cultures grown to OD600 = 0.1–0.4 were diluted to a desired OD600 of 0.001–0.002 corresponding to 1 × 10^6 CFU/mL. Next, 50 μL bacterial suspension was added to the microtiter plates, giving a final bacterial inoculum of 5 × 10^5 CFU/mL per well. The plates were incubated at 37 °C for 18–24 h. […] The MIC values were visually evaluated, and the MIC was set to the lowest concentration […] based on triplicate measurements. […]
# P. aeruginosa ATCC 27853 [1] = assay type: cell-based, Pseudomonas aeruginosa; settings: MHB-II, inoculum 5 × 10^5 CFU/mL, 37 °C, 18–24 h, visual read-out, triplicate
# Experimental: as §1, with “The use of pure MHB-II was compatible with S3(B) and its fatty acid analogues, and therefore was chosen for the MIC determinations. Noticeably, MHB-I with BSA and acetic acid led to precipitation of lipopeptides in the present work.” left out
# Cation-adjusted Mueller-Hinton broth (MHB-II) media (BD BBLTM Beef extract powder, BD BactoTMCasamino acids, and DIFCO soluble starch was from Becton, Dickinson and Company©, Franklin Lakes, NJ, USA). […] A VersaMaxTM Tunable Microplate Reader (Molecular Devices LLC, Sunnyvale, CA, USA) was used and the data were evaluated on a Softmax® Pro (Molecular Devices LLC).
# The MIC experiments were performed according to a protocol adapted from Wiegand et al., with minor modifications. The MICs were determined in triplicate. […] The MIC values were visually evaluated, and the MIC was set to the lowest concentration […] based on triplicate measurements. […]
# P. aeruginosa ATCC 27853 [2] = test system: P. aeruginosa ATCC 27853
# Experimental: The MIC constitutes a limited measure for antimicrobial activity. It indicates whether or not AMPs in different concentrations are able to prevent visible growth of bacteria.
# Time-kill experiments were performed on balanced exponentially growing cultures of P. aeruginosa ATCC 27853. We used balanced cultures as described in Oddo et al.. Briefly, overnight cultures were prepared in MHB-II broth at 37 °C with shaking. Overnight cultures were back-diluted and grown exponentially for no less than 8–10 generations before experimentation. When experiments were done, exponentially growing cultures were back-diluted to an OD600 = 0.0005 approximately 5 × 10^5 CFU, into fresh MHB-II heated to 37 °C. Samples (250 μL) were taken at time points 0, 1, 3, 5, and 24 h. Samples were spun down at 8000× g for 5 min and washed in 1 mL of NaCl 0.9% before being spun down again and re-suspended in 250 μL NaCl 0.9%. From this, 10-fold dilution series were prepared and 10 μL samples were spot-plated in triplicate onto LB-agar. From the undiluted sample, 100 μL samples were also plated, i.e., giving a detection limit of 10 CFU/mL.
structure (smiles),measurement,setting,value
CCCCCCCC(=O)NCC[C@@H]1NC(=O)[C@H](CCN)NC(=O)[C@H](CCCNC(=N)N)NC(=O)[C@H](Cc2ccc3ccccc3c2)NC(=O)[C@H](CCN)NC(=O)[C@H](CC(N)=O)NC(=O)[C@H](CCN)NC(=O)[C@H](Cc2ccc3ccccc3c2)NC(=O)COCCOCCNC1=O [(C8)^5] (cyclo([Dab][2Nal]R[Dab][Dab](Octanoyl)[AEEA][2Nal][Dab]N)),"Minimum inhibitory concentration, EC",E. coli ATCC 25922,16 µg/mL
same,"Minimum inhibitory concentration, PA",P. aeruginosa ATCC 27853 [1],8 µg/mL
same,bacterial cell count over the first 5 h,"P. aeruginosa ATCC 27853 [2]; 1 × MIC (8 μg/mL), 0–5 h, MHB-II, 37 °C",did not change
same,log reduction of cell count within first hour of treatment,"P. aeruginosa ATCC 27853 [2]; 5 × MIC ((C8)^5 40 μg/mL; colistin 2.5 μg/mL), 1 h, MHB-II, 37 °C, shaking, n = 3",4.5 log
same,cell count / growth after 24 h,"P. aeruginosa ATCC 27853 [2]; 5 × MIC ((C8)^5 40 μg/mL; colistin 2.5 μg/mL), 24 h, detection limit 10 CFU/mL",10^4 CFU/mL
same,killing of the bacteria in the original inoculum,"P. aeruginosa ATCC 27853 [2]; ATCC 27853, 1 h, 40 μg/mL",> 99.9%

# Source: article PMC7461568, “Novel Cyclic Lipopeptide Antibiotics: Effects of Acyl Chain Length and Position” (International Journal of Molecular Sciences, 2020)
